# Experimental data as given in patent publication US9687488B2, “Compositions and methods for increasing neurotrophic peptides” (Saint Louis College of Pharmacy, priority 2012, dated 2017).
# How the values were obtained:
# [1] = tested on: progranulin levels in cortical neuron cultures; assay: Dot blot / immunoblotting of progranulin in primary cortical neuron cultures; assay type: cell-based, Murine; conditions: primary cortical neurons, 24 hours; for accumulation of progranulin: dot blot (FIG. 5), repeat triplicate experiments
# Description: (§1) Murein E14-E15 cortices were dissected and removed to Hanks Balanced Salt Solution (HBSS) The tissue was dissociated with 0.05% trypsin in HBSS for 10 min at 37° C., and then filtered through a 70 µm cell strainer. Cells were plated on poly-D-lysine (PDL)-coated plates at −3.2×10^5 cells/cm^2 in CEMEM (10% fetal bovine serum, 10% horse serum, 2 mM L-glutamine, and 1% penicillin/streptomycin) for 45 min in a 37° C. humidified tri-gas incubator (5% CO2 and 5% 02). The medium was changed to Neurobasal medium (Invitrogen, Carlsbad, Calif.) with a B27 supplement (Gibco) containing antioxidants (NB plus AO) to specifically enhance neuronal growth. After 3 days the media were half changed with NB plus AO. All treatments were done at day 5 with complete media change containing vehicle, SAHA (suberoyl anilide hydroxamic acid; Vorinostat), and test compounds at final concentrations ranging from 125 μM to 1 nM for 24 hours.
# Culture medium was collected and cells were lysed in lysis buffer containing 50 mM Tris-HCl, pH 7.5, 150 mM sodium chloride, 1% Nonidet P-40, 0.5% sodium deoxycholate, 1 mM sodium orthovanadate, 5 mM sodium fluoride, and a protease inhibitor cocktail. Sample concentrations were determined to ensure equal loading, placed in Laemmli sample buffer containing B-mercaptoethanol, and denatured at 100° C. for 5 min. Proteins were separated on a 4% stacking and 12% resolving SDS-PAGE Tris-glycine gel, transferred to polyvinylidene difluoride membrane (Millipore), and blocked in 5% instant milk or 5% bovine serum albumin in Tris-buffered saline with 0.1% Tween for 1 hour. For immunoblotting, primary antibodies were incubated overnight at 4° C. with 1/1000 tubulin (Developmental Studies Hybridoma), and 1/1000 Progranulin (ProteinTech Group). 15 μL of media was loaded from each sample. Ponceau red staining on the membrane before immunological probing was used to show equal loading to look for secreted progranulin and survival of motor neurons protein.
# primary cortical neurons = assay: MTS cell viability assay; assay type: cell-based, murine; conditions: 24 hours
# Description: as §1, with “hours. The MTS non-radioactive cell viability assay employed [3-(4,5-dimethylthiazol-2-yl)-5-(3-carboxymethoxyphenyl)-2-(4-sulfophenyl)-2H-tetrazolium, inner salt with phenazine methosulfate added as an electron coupling reagent, MTS is bioreduced by cells into a formazan product that is soluble in tissue culture medium and can be measured at 490 nm. MTS was performed at 24 hours per manufacturer recommendations (Promega, G5421).” for “hours.”
# [2] = tested on: survival motor neuron (SMN) protein in cortical neurons; assay: Immunoblotting of SMN protein in cortical neuron cultures; assay type: cell-based, murine; conditions: immunoblot against tubulin (FIG. 6)
# Description: as §1
# Culture medium was collected and cells were lysed in lysis buffer containing 50 mM Tris-HCl, pH 7.5, 150 mM sodium chloride, 1% Nonidet P-40, 0.5% sodium deoxycholate, 1 mM sodium orthovanadate, 5 mM sodium fluoride, and a protease inhibitor cocktail. Sample concentrations were determined to ensure equal loading, placed in Laemmli sample buffer containing B-mercaptoethanol, and denatured at 100° C. for 5 min. […]
smiles,measurement,setting,value
"COc1ccc(-c2c(C)nn3c(=O)cc(Cc4ccccc4)[nH]c23)cc1OC [Compound 1, 5-benzyl-3-(3,4-dimethoxyphenyl)-2-methyl-4H,7H-pyrazolo[1,5,a]pyrimidin-7-one]",effective dose for progranulin accumulation,[1],effective in extremely low doses
same,accumulation of progranulin,[1],elicited accumulation of progranulin
same,toxicity to the neurons,primary cortical neurons,apparently nontoxic
"CC(=O)N(c1ccc(Oc2ccccc2)cc1)C1C=CS(=O)(=O)C1 (centres unmarked) [Compound 2, N-(1,1-dioxo-2,3-dihydro-1-[…]^6-thiophene-3-yl)-N-(4-phenoxyphenyl)acetamide]",cellular concentration of survival motor neuron (SMN) protein,[2],dramatically increase
"COc1ccc(Cl)cc1NC(=O)CS(=O)(=O)c1ccccc1 [Compound 3, 2-(benzenesulfonyl)-N-(5-chloro-2-methoxyphenyl)acetamide]",effective dose for progranulin accumulation,[1],effective in extremely low doses
same,accumulation of progranulin,[1],elicited accumulation of progranulin
same,toxicity to the neurons,primary cortical neurons,apparently nontoxic
"CCN(CC(=O)Nc1ccccc1C)S(=O)(=O)c1ccc(OC)cc1 [Compound 4, 2-(N-ethyl-4-methoxybenzenesulfonamido)-N-(2-methylphenyl) acetamide]",cellular concentration of survival motor neuron (SMN) protein,[2],dramatically increase
